Data taken from US10968222B2, “2-azabicyclo hexane JAK inhibitor compound” (THERAVANCE BIOPHARMA R&D IP, LLC, priority 2018, dated 2021).

How the values were obtained:
EPHB6 = target: T1, EPHB6 (Homo sapiens, UniProt O15197); experiment: Kinome screen, EPHB6; assay type: binding; details: screened at 1 μM
T1 construct: made in house; host or cells: E. coli BL21-derived host (T7 phage) or HEK-293 cells
Procedure: (§1) Compounds 1 and C-1 were screened against other kinases to evaluate their selectivity profile.
(§2) Kinase-tagged T7 phage strains were grown in parallel in 24-well blocks in an E. coli host derived from the BL21 strain. E. coli were grown to log-phase and infected with T7 phage from a frozen stock (multiplicity of infection=0.4) and incubated with shaking at 32° C. until lysis (90-150 minutes). The lysates were centrifuged (6,000×g) and filtered (0.2 μm) to remove cell debris. The remaining kinases were produced in HEK-293 cells and subsequently tagged with DNA for qPCR detection.
(§3) Streptavidin-coated magnetic beads were treated with biotinylated small molecule ligands for 30 minutes at room temperature to generate affinity resins for kinase assays. The liganded beads were blocked with excess biotin and washed with blocking buffer (SeaBlock (Pierce), 1% BSA, 0.05% Tween 20, 1 mM DTT) to remove unbound ligand and to reduce non-specific phage binding. Binding reactions were assembled by combining kinases, liganded affinity beads, and test compounds in 1× binding buffer (20% SeaBlock, 0.17×PBS, 0.05% Tween 20, 6 mM DTT). Test compounds were prepared as 40× stocks in 100% DMSO and directly diluted into the assay. All reactions were performed in polypropylene 384-well plates in a final volume of 0.04 ml. […] The kinase concentration in the eluates was measured by qPCR. […]

[1] = test system: BEAS-2B human lung epithelial cells; experiment: CellTiter-Glo cell viability/cytotoxicity assay; assay type: cell-based; details: BEAS-2B cells; 48 h; 15% inhibition threshold
Procedure: A CellTiter-Glo luminescent cell viability/cytotoxicity assay was carried out in BEAS-2B human lung epithelial cells (ATCC) under the normal growth condition.
Cells were grown at 37° C. in a 5% CO2 humidified incubator in 50% DMEM/50% F-12 medium (Life Technologies) supplemented with 10% FBS (Hyclone), 100 U/mL penicillin, 100 μg/mL streptomycin (Life Technologies), and 2 mM GlutaMAX (Life Technologies). On day 1 of the assay, cells were seeded at a 500 cells/well density in white 384-well tissue culture plates (Corning) with 25 μL medium, and were allowed to adhere overnight in the incubator. On day 2 of the assay, 5 μL of medium containing dose-responses of test compounds was added, and incubated at 37° C. for 48 h. 30 μL of CellTiter-Glo detection solution (Promega) was subsequently added, mixed on an orbital shaker for 5 min, and incubated for additional 10 min before being read on the EnVision reader. Luminescence signals were recorded and percent DMSO control values were calculated.
For dose-response analysis, percent DMSO control data were plotted vs. compound concentrations to derive dose-response curves by line connecting each data point. The concentration at which each curve crosses the 15% inhibition threshold is defined as CC15.

CDK9 = target: T2, CDK9 (Homo sapiens, UniProt P50750); experiment: Kinome screen, CDK9; assay type: binding; details: screened at 1 μM
T2 construct: made in house; host or cells: E. coli BL21-derived host (T7 phage) or HEK-293 cells
T2 sequence (P50750 whole entry): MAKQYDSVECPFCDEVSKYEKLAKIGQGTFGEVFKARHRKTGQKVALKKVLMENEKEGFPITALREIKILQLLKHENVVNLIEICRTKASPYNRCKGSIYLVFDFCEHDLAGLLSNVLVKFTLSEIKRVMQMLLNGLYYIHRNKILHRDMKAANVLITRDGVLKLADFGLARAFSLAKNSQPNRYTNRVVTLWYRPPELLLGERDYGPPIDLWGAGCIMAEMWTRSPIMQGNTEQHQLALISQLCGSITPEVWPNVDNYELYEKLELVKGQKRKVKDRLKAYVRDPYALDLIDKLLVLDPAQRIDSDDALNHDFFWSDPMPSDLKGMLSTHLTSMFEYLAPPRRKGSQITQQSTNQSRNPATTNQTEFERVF
Procedure: as §1, §2, §3

AURKA = target: T3, AURKA (Homo sapiens, UniProt O14965); experiment: Kinome screen, AURKA; assay type: binding; details: screened at 1 μM
T3 construct: made in house; host or cells: E. coli BL21-derived host (T7 phage) or HEK-293 cells
T3 sequence (O14965 whole entry): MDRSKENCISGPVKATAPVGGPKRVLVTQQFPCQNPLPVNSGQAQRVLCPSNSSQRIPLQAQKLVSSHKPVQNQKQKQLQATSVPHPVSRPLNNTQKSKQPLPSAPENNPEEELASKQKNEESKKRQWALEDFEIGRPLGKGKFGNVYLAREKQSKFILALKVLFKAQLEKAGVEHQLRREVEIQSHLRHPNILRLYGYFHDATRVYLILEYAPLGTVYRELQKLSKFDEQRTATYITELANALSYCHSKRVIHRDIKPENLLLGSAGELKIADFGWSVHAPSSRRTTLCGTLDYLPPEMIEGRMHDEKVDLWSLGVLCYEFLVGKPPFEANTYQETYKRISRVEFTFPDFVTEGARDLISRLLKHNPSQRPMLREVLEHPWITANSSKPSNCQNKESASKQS
Procedure: as §1, §2, §3

CSF1R = target: T4, CSF1R (Homo sapiens, UniProt P07333); experiment: Kinome screen, CSF1R; assay type: binding; details: screened at 1 μM
T4 construct: made in house; host or cells: E. coli BL21-derived host (T7 phage) or HEK-293 cells
T4 sequence (P07333 20-972): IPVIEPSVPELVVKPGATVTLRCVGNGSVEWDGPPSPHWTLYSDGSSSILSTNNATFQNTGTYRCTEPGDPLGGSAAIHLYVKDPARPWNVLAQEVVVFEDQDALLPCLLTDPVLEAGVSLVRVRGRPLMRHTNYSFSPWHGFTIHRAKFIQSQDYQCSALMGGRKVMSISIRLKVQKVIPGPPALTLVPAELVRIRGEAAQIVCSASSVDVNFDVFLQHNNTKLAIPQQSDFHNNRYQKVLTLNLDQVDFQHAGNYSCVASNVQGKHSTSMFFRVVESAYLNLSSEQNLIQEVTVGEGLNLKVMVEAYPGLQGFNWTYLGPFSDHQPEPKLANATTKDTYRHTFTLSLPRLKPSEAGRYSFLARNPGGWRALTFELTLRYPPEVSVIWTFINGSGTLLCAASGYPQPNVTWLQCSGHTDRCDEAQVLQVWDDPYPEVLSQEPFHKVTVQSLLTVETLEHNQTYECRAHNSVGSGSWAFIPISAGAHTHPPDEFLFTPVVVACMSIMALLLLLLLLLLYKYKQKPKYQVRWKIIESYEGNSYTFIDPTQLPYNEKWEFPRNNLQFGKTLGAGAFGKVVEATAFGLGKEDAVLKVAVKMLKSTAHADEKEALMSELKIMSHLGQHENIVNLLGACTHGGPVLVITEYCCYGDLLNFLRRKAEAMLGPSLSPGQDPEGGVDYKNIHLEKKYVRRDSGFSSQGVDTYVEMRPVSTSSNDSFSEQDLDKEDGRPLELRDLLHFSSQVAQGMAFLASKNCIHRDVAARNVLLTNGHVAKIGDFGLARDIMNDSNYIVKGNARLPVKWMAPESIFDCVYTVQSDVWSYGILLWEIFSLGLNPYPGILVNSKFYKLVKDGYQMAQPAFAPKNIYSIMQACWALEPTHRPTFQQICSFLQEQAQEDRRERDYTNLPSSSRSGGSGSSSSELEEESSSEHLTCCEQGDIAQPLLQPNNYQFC
Procedure: as §1, §2, §3

SRC = target: T5, SRC (Homo sapiens, UniProt P12931); experiment: Kinome screen, SRC; assay type: binding; details: screened at 1 μM
T5 construct: made in house; host or cells: E. coli BL21-derived host (T7 phage) or HEK-293 cells
T5 sequence (P12931 whole entry): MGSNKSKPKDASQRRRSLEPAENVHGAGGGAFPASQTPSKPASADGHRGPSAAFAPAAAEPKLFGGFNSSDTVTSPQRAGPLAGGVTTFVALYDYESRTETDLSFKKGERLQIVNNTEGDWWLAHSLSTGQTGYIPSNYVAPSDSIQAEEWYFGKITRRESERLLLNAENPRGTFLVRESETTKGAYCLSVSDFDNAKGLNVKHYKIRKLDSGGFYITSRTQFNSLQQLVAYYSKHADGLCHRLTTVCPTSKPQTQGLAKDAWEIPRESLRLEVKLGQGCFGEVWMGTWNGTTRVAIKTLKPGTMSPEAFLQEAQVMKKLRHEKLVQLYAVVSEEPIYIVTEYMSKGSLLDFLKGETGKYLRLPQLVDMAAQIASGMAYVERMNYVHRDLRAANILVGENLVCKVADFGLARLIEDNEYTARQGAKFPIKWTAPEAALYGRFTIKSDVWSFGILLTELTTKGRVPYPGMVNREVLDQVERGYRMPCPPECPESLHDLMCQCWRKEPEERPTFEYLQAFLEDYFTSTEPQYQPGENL
Procedure: as §1, §2, §3

T1 sequence (O15197 32-1021): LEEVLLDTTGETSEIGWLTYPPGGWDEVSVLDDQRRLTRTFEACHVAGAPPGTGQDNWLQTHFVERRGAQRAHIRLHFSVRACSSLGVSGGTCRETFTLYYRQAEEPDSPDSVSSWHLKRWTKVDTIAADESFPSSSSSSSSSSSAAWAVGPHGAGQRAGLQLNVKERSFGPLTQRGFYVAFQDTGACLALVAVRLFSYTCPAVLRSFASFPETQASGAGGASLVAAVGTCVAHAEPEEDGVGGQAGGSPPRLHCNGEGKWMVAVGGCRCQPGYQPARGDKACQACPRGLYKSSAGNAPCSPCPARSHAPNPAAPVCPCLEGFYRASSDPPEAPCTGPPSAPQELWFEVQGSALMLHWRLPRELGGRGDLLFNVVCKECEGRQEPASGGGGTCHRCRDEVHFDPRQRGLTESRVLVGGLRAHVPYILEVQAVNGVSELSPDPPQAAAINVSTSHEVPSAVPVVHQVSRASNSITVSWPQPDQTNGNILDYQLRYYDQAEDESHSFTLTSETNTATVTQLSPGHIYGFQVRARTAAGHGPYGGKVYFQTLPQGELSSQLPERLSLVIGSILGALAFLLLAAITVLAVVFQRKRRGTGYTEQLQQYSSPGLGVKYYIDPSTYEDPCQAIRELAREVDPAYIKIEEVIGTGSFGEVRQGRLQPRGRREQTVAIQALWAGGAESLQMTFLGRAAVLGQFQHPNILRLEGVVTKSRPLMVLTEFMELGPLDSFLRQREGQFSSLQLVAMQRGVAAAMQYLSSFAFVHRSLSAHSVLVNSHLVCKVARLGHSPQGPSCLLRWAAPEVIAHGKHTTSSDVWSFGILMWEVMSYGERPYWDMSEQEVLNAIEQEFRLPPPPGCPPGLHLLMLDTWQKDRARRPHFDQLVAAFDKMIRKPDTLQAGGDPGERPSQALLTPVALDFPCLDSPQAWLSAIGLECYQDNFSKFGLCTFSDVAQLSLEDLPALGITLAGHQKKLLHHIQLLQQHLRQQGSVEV

Structure (SMILES): CCc1cc(O)c(F)cc1-c1cc(F)c2c(-c3nc4c([nH]3)CCN(C(=O)[C@]35C[C@H]3CCN5)C4)n[nH]c2c1 [Compound 1, (1S,5R)-2-azabicyclo[3.1.0]hexan-1-yl(2-(6-(2-ethyl-5-fluoro-4-hydroxyphenyl)-4-fluoro-1H-indazol-3-yl)-6,7-dihydro-3H-imidazo[4,5-c]pyridin-5(4H)-yl)methanone]
- inhibition at 1 µM (EPHB6): 85%
- CC15 [1]: > 10 µM
- pCC15 [1]: < 5
- inhibition at 1 µM (CDK9): 13%
- inhibition at 1 µM (AURKA): 26%
- inhibition at 1 µM (CSF1R): 98%
- inhibition at 1 µM (SRC): 65%
